Literature values, collected in PubChem BioAssay AID1259409 (Chemical Carcinogenesis Research Information System (CCRIS), 2018).

Test system: rodent chemically induced tumor inhibition, incidence and multiplicity
Assay: CCRIS tumor inhibitor studies
Conditions: Carcinogen: 7,12-DIMETHYLBENZ[A]ANTHRACENE; 57-97-6; Dose [Inhibitor]: 81 NMOL IN 100 µL ACETONE/DMSO (99:1) APPLIED 40 MIN PRIOR TO EACH PROMOTER DOSE (STUDY DURATION: 18 WK); Route [Inhibitor]: DERMAL; Species: MOUSE; Strain/Sex: ICR; Target Tissue: Type of Lesion: SKIN: CARCINOMA; Dose [Carcinogen]: 100 UG ONCE; Promoter: 12-O-TETRADECANOYLPHORBOL-13-ACETATE; 16561-29-8

## CC1(C)CC[C@]2(CO)CC[C@]3(C)C(=CC[C@@H]4[C@@]5(C)CC[C@H](O)[C@@](C)(CO)[C@@H]5CC[C@]43C)[C@@H]2C1
  tumour outcome (control, treated, inhibition, significance): 100%, 40%, 60%, not calculated
